Experimental findings from ChEMBL document CHEMBL1158218, “Structure and Plant Growth Regulatory Activity of New Diterpenes from Pterodon polygalaeflorus” (1996) are described below.

In experiment [1] the test system is Cucumis sativus. Put plainly: Stimulation of radicular growth in Cucumis sativus at 1000 ppm after 3 days. Type of experiment: functional, organism-based.
The subject of experiment [2] is Sorghum bicolor. The experiment can be described thus: Inhibition of radicular growth in Sorghum bicolor at 1000 ppm after 3 days. The settings on record: 72 h. Type of experiment: functional.
Experiment [3] has as its system Cucumis sativus. The experiment can be described thus: Stimulation of radicular growth in Cucumis sativus at 100 ppm after 3 days. Type of experiment: functional, organism-based.
In experiment [4] the test system is Cucumis sativus. The experiment can be described thus: Inhibition of radicular growth in Cucumis sativus at 1000 ppm after 3 days. Type of experiment: functional, organism-based.
Experiment [5] deals with Sorghum bicolor. Put plainly: Inhibition of radicular growth in Sorghum bicolor at 100 ppm after 3 days. Type of experiment: functional. The settings on record: 72 h.

Structures are written as SMILES. The source made the active and inactive calls. The rule behind the calls is not given here.

Consider `CC1(C)CCC[C@]2(C)[C@H]3Cc4occc4[C@H]4C(=O)O[C@@H]([C@H](O)[C@@H]12)[C@@H]43`, for which the outcome in experiment [1] was inactive. The same compound had an inhibition at 1000 ppm in experiment [2] of 13%. In addition, the result in experiment [3] was Active.

As for `C[C@]1(CO)CCC[C@]2(C)[C@H]3Cc4occc4[C@@](C)(O)[C@@H]3[C@@H](O)[C@H](O)[C@@H]12`, the result in experiment [4] and in experiment [3] was Active. This compound also came in with an inhibition at 1000 ppm in experiment [2] of 13%.

In turn, `CC1(C)CCC[C@]2(C)[C@H]3Cc4occc4[C@@H](C(=O)O)[C@@H]3[C@@H](O)[C@H](O)[C@@H]12` yielded an inhibition at 100 ppm in experiment [5] of 39%. Besides, the outcome in experiment [4] and in experiment [3] was Active. In experiment [2], the inhibition at 1000 ppm was determined as 65%.

As to `CC1(C)CCC[C@]2(C)[C@H]3Cc4occc4[C@@](C)(O)[C@@H]3[C@@H](O)[C@H](O)[C@@H]12`, in experiment [1], the result was inactive. Moreover, in experiment [2], the inhibition at 1000 ppm is 13%. Also, in experiment [3], the result was Active.
